Laboratory results reported in patent publication US20250059164A1, “IRAK DEGRADERS AND USES THEREOF” (Kymera Therapeutics, Inc., priority 2023, published 2025).

Experiments:
IRAK4 = target: T1, IRAK4 (Homo sapiens, UniProt Q9NWZ3); assay: IRAK4 MSD degradation in OCI-LY10; format: cell-based; settings: OCI-LY10 cells, 24 hrs, Meso Scale Discovery
T1 construct: endogenous in cells; host or cells: OCI-LY10
T1 sequence (Q9NWZ3 1-460): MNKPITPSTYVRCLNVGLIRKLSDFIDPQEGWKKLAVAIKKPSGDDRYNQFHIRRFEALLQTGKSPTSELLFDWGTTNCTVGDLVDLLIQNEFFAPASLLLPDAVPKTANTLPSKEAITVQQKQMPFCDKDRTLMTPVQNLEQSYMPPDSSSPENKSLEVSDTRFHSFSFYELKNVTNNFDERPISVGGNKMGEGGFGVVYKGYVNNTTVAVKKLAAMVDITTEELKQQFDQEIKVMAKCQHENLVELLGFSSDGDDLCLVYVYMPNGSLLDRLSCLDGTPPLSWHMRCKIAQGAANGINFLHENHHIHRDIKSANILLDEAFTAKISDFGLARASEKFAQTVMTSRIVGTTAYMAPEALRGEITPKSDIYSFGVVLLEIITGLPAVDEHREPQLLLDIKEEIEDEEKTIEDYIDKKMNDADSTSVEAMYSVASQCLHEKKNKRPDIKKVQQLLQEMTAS
Summary of the method: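 Remaining IRAK4 protein measured by Meso Scale Discovery electrochemiluminescence sandwich assay on lysates of OCI-LY10 cells. Cells were exposed for 4 to 24 hours (37° C., 5% CO2) to eight 1:3-diluted concentrations starting at 1 to 10 μM. DC50 derived by three-parameter logistic fitting.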

[1] = Rodent pharmacokinetics (rat PK); format: in vivo; settings: po, dosed intravenously or orally by gavage, plasma, read-out: F % (bioavailability)
Description: All studies related to handling, care, and treatment of rats in the study were performed according to the guidelines approved by the Institutional Animal Care and Use Committee (IACUC). All rats had access to food and water ad libitum. Rats were dosed intravenously or orally by gavage. Whole blood was collected from the jugular vein immediately prior to dosing and at 5 (intravenously administered drugs only), 15, and 30 min and 1, 2, 4, 8, and 24 h after drug administration. After sampling, whole blood was centrifuged at 4,000×g for 5 min at 4° C. to obtain plasma.
The letter codes for bioavailability (F %) include: A (≥5%) and B (≤5%).

Compound Cn1c(=O)n(C2CCC(=O)NC2=O)c2cccc(N3CCC4(CCN(C[C@H]5CC[C@H](n6cc7cc(NC(=O)c8cncc(C#N)c8)c(C(C)(C)O)cc7n6)CC5)CC4(F)F)CC3)c21 (mixture of isomers) [I-136, 5-Cyano-N-[2-[4-[[9-[1-(2,6-dioxo-3-piperidyl)-3-methyl-2-oxo-benzimidazol-4-yl]-5,5-difluoro-3,9-diazaspiro[5.5]undecan-3-yl]methyl]cyclohexyl]-6-(1-hydroxy-1-methyl-ethyl)indazol-5-yl]pyridine-3-carboxamide] has a DC50 (IRAK4) of under 10 nM and a bioavailability [1] of at most 5%.

In the case of COc1ccc2c(c1N1CC3(CCN(C[C@H]4CC[C@H](n5cc6cc(NC(=O)c7cncc(C#N)c7)c(C(C)(C)O)cc6n5)CC4)CC3(F)F)C1)n(C)c(=O)n2C1CCC(=O)NC1=O (mixture of isomers) [I-227, 5-Cyano-N-[2-[4-[[2-[1-(2,6-dioxo-3-piperidyl)-5-methoxy-3-methyl-2-oxo-benzimidazol-4-yl]-5,5-difluoro-2,7-diazaspiro [3.5]nonan-7-yl]methyl]cyclohexyl]-6-(1-hydroxy-1-methyl-ethyl)indazol-5-yl]pyridine-3-carboxamide], the DC50 (IRAK4) is reported as under 10 nM and the bioavailability [1] is reported as at most 5%.

For CN(C[C@H]1CC[C@H](n2cc(NC(=O)c3cnn4ccc(N5CCCC5)nc34)c(C(F)F)n2)CC1)[C@H]1CCN(c2cccc3c2n(C)c(=O)n3C2CCC(=O)NC2=O)C[C@H]1F (single isomer, unassigned) [I-21], the bioavailability [1] was at most 5%.

With CN(C[C@H]1CC[C@H](n2cc(NC(=O)c3cnn4ccc(N5C[C@H]6C[C@@H]5CO6)nc34)c(C(F)F)n2)CC1)[C@H]1CCN(c2cccc3c2n(C)c(=O)n3C2CCC(=O)NC2=O)C[C@H]1F (single isomer, unassigned) [I-27] the DC50 (IRAK4) was under 10 nM and the bioavailability [1] was at most 5%.

With CN(C[C@H]1CC[C@H](n2cc(NC(=O)c3cnn4ccc(N5C[C@H]6C[C@@H]5CO6)nc34)c(C(F)F)n2)CC1)[C@H]1CCN(c2cccc3c2n(C)c(=O)n3C2CCC(=O)NC2=O)C[C@@H]1F (single isomer, unassigned) [I-28] the DC50 (IRAK4) was under 10 nM and the bioavailability [1] was at least 5%.

In the case of O=C1CCC(c2ccc(N3CC(N4CCN([C@H]5CC[C@H](n6cc(NC(=O)c7cnn8ccc(N9C[C@H]%10C[C@@H]9CO%10)nc78)c(C(F)F)n6)CC5)CC4)C3)cc2Cl)C(=O)N1 (single isomer, unassigned) [I-46], the DC50 (IRAK4) is reported as under 10 nM and the bioavailability [1] is reported as at least 5%.

With Cn1c(=O)n(C2CCC(=O)NC2=O)c2cccc([C@@H]3CCN(C[C@H]4CC[C@H](c5nc6cc(C(C)(C)O)c(NC(=O)c7cccc(C(F)(F)F)n7)cc6s5)CC4)C[C@H]3F)c21 (single isomer, unassigned) [I-102] the DC50 (IRAK4) was under 10 nM and the bioavailability [1] was at least 5%.

CN(C[C@H]1CC[C@H](c2nc3cc(C(C)(C)O)c(NC(=O)c4cccc(C(F)(F)F)n4)cc3s2)CC1)[C@@H]1CCN(c2cccc3c2n(C)c(=O)n3C2CCC(=O)NC2=O)C[C@@H]1F (single isomer, unassigned) [I-104] showed a DC50 (IRAK4) of under 10 nM and a bioavailability [1] of at least 5%.

COc1cc2nn([C@H]3CC[C@H](CN4CC[C@H](c5cccc6c5n(C)c(=O)n6C5CCC(=O)NC5=O)C(F)(F)C4)CC3)cc2cc1NC(=O)c1cncc(C#N)c1 (single isomer, unassigned) [I-106] showed a DC50 (IRAK4) of under 10 nM and a bioavailability [1] of at most 5%.

Cn1c(=O)n(C2CCC(=O)NC2=O)c2cccc([C@@H]3CCN(C[C@H]4CC[C@H](n5cc6cc(NC(=O)c7cncc(C(F)(F)F)n7)ccc6n5)CC4)C[C@H]3F)c21 (single isomer, unassigned) [I-112] showed a DC50 (IRAK4) of under 10 nM and a bioavailability [1] of at most 5%.

In the case of COc1cc2nc([C@H]3CC[C@H](CN4CC[C@H](c5cccc6c5n(C)c(=O)n6C5CCC(=O)NC5=O)C(F)(F)C4)CC3)sc2cc1NC(=O)c1cncc(C#N)c1 (single isomer, unassigned) [I-140], the DC50 (IRAK4) is reported as over 200 nM and the bioavailability [1] is reported as at most 5%.

Work on CN(C[C@H]1CC[C@H](c2nc3cc(C(C)(C)O)c(NC(=O)c4cncc(C(F)(F)F)c4)cc3s2)CC1)[C@@H]1CCN(c2cccc3c2n(C)c(=O)n3C2CCC(=O)NC2=O)C[C@H]1F (single isomer, unassigned) [I-159] yielded a DC50 (IRAK4) of 10 to 100 nM and a bioavailability [1] of at least 5%.

In the case of CN(C[C@H]1CC[C@H](c2nc3cc(C(C)(C)O)c(NC(=O)c4cncc(C(F)(F)F)c4)cc3s2)CC1)[C@H]1CCN(c2cccc3c2n(C)c(=O)n3C2CCC(=O)NC2=O)C[C@@H]1F (single isomer, unassigned) [I-160], the bioavailability [1] is reported as at least 5%.

Work on CN(C[C@H]1CC[C@H](c2nc3cc(C(C)(C)O)c(NC(=O)c4cccc(C(F)(F)F)c4)cc3s2)CC1)[C@@H]1CCN(c2cccc3c2n(C)c(=O)n3C2CCC(=O)NC2=O)C[C@H]1F (single isomer, unassigned) [I-176] yielded a bioavailability [1] of at least 5%.

Compound CN(C[C@H]1CC[C@H](c2nc3cc(C(C)(C)O)c(NC(=O)c4cccc(C(F)(F)F)c4)cc3s2)CC1)[C@H]1CCN(c2cccc3c2n(C)c(=O)n3C2CCC(=O)NC2=O)C[C@@H]1F (single isomer, unassigned) [I-177] has a bioavailability [1] of at least 5%.

For COc1cn2nc([C@H]3CC[C@H](CN(C)[C@H]4CCN(c5cccc6c5n(C)c(=O)n6C5CCC(=O)NC5=O)C[C@H]4F)CC3)cc2cc1NC(=O)c1cncc(C(F)(F)F)n1 (single isomer, unassigned) [I-219], the bioavailability [1] was at most 5%.

In the case of Cn1c(=O)n(C2CCC(=O)NC2=O)c2cccc(N3CC[C@H](CN4CCN(C[C@H]5CC[C@H](n6cc(NC(=O)c7cnn8ccc(N9C[C@H]%10C[C@@H]9CO%10)nc78)c(C(F)F)n6)CC5)CC4)C3)c21 (stereo partly shown) [I-114], the bioavailability [1] is reported as at most 5%.

COc1cn2nc([C@H]3CC[C@H](CN4CC[C@@H](c5cccc6c5n(C)c(=O)n6C5CCC(=O)NC5=O)[C@H](F)C4)CC3)cc2cc1NC(=O)c1cncc(C(F)(F)F)n1 (stereo partly shown) [I-166] showed a bioavailability [1] of at most 5%.

CN(C[C@H]1CC[C@H](c2nc3cc(C(C)(C)O)c(NC(=O)c4cccc(C(F)(F)F)n4)cc3o2)CC1)[C@H]1CCN(c2cccc3c2n(C)c(=O)n3C2CCC(=O)NC2=O)C[C@H]1F (stereo partly shown) [I-178] gave a bioavailability [1] of at least 5%.

Cn1nc(C2CCC(=O)NC2=O)c2cccc(N3CCC4(CCN(C[C@H]5CC[C@H](n6cc7cc(NC(=O)c8cncc(C#N)c8)c(C(C)(C)O)cc7n6)CC5)CC4(F)F)CC3)c21 (stereo partly shown) [I-220] showed a bioavailability [1] of at most 5%.

Cn1c(=O)n(C2CCC(=O)NC2=O)c2cccc(N3CC4(CCN(C[C@H]5CC[C@H](n6cc7cc(NC(=O)c8cncc(C(F)(F)F)n8)ncc7n6)CC5)CC4(F)F)C3)c21 (stereo partly shown) [I-221] gave a bioavailability [1] of at most 5%.

For Cn1c(=O)n(C2CCC(=O)NC2=O)c2cccc([C@H]3C[C@H](COC4CCN(C[C@H]5CC[C@H](n6cc(NC(=O)c7cnn8ccc(N9C[C@H]%10C[C@@H]9CO%10)nc78)c(C(F)F)n6)CC5)CC4)C3)c21 (stereo partly shown) [I-267], the bioavailability [1] was at most 5%.

Work on Cn1c(=O)n(C2CCC(=O)NC2=O)c2cccc(N3CCN(C[C@H]4CC[C@H](n5cc6cc(NC(=O)c7cncc(C(F)(F)F)n7)ccc6n5)CC4)[C@@H](C(F)(F)F)C3)c21 (stereo partly shown) [I-369] yielded a DC50 (IRAK4) of 100 to 200 nM.

Compound CN1C(=O)CCC(n2c(=O)n(C)c3c([C@@H]4CCN(C[C@H]5CC[C@H](n6cc7cc(NC(=O)c8cncc(C(F)(F)F)n8)ccc7n6)CC5)CC4(F)F)cccc32)C1=O (stereo partly shown) [I-378] has a DC50 (IRAK4) of over 200 nM.

With CN1C(=O)CCC(n2c(=O)n(C)c3c([C@@H]4CCN(C[C@H]5CC[C@H](n6cc7cc(NC(=O)c8cncc(C(F)(F)F)n8)ccc7n6)CC5)C[C@H]4F)cccc32)C1=O (stereo partly shown) [I-382] the DC50 (IRAK4) was over 200 nM.

COc1ccc2c(c1N1CCC3(CCN(C[C@H]4CC[C@H](n5cc6cc(NC(=O)c7cncc(C#N)c7)c(C(C)(C)O)cc6n5)CC4)CC3(F)F)CC1)n(C)c(=O)n2C1CCC(=O)NC1=O (stereo partly shown) [I-397] gave a DC50 (IRAK4) of under 10 nM.

With COc1cc(C(=O)Nc2ccc3nn([C@H]4CC[C@H](CN5CCC6(CCN(c7cccc8c7n(C)c(=O)n8C7CCC(=O)NC7=O)CC6)C(F)(F)C5)CC4)cc3c2)nc(C(F)(F)F)c1 (stereo partly shown) [I-398] the DC50 (IRAK4) was over 200 nM.

Cn1c(=O)n(C2CCC(=O)NC2=O)c2ccc(F)c(N3CCC4(CCN(C[C@H]5CC[C@H](n6cc7cc(NC(=O)c8cncc(C(F)(F)F)n8)ccc7n6)CC5)CC4(F)F)CC3)c21 (stereo partly shown) [I-399] showed a DC50 (IRAK4) of 10 to 100 nM.

Compound COc1cc(C(=O)Nc2ccc3nn([C@H]4CC[C@H](CN5CC[C@@H](c6cccc7c6n(C)c(=O)n7C6CCC(=O)NC6=O)C(F)(F)C5)CC4)cc3c2)nc(C(F)(F)F)c1 (stereo partly shown) [I-401] has a DC50 (IRAK4) of over 200 nM.

In the case of Cc1cc(C(=O)Nc2ccc3nn([C@H]4CC[C@H](CN5CC[C@@H](c6cccc7c6n(C)c(=O)n7C6CCC(=O)NC6=O)C(F)(F)C5)CC4)cc3c2)nc(C(F)(F)F)c1 (stereo partly shown) [I-402], the DC50 (IRAK4) is reported as over 200 nM.

For Cc1cc(C(=O)Nc2ccc3nn([C@H]4CC[C@H](CN5CCC6(CCN(c7cccc8c7n(C)c(=O)n8C7CCC(=O)NC7=O)CC6)C(F)(F)C5)CC4)cc3c2)nc(C(F)(F)F)c1 (stereo partly shown) [I-403], the DC50 (IRAK4) was over 200 nM.

In the case of Cn1c(=O)n(C2CCC(=O)NC2=O)c2cccc([C@@H]3CCN(C[C@H]4CC[C@H](n5cc6cc(NC(=O)c7cncc(C#N)c7)c(C(C)(C)O)cc6n5)CC4)CC3(F)F)c21 (stereo partly shown) [I-416], the DC50 (IRAK4) is reported as under 10 nM.
